Converted amounts (≈) assume the structure as drawn.
Test system: lymphocytic leukemia P388 cells
Test: screening of cytostatic activity using lymphocytic leukemia P388 cells
Type: cell-based
Source text: The screening of cytostatic activity was made using lymphocytic leukemia P388 cells.

`CC[C@H](C)[C@@H]([C@@H](CC(=O)N1CCC[C@H]1[C@H](OC)[C@@H](C)C(=O)N[C@@H](Cc1ccccc1)c1nccs1)OC)N(C)C(=O)[C@@H](NC(=O)[C@H](C(C)C)N(C)C)C(C)C` [Dolastatin 10] gave an ED50 of 0.7 ng/mL (≈ 0.892 nM).
